Measured values published in US10201531B2, “Indazolyl-oxo-isothiazole compounds” (MOCHIDA PHARMACEUTICAL CO., LTD., priority 2015, dated 2019).
pEC50: −log10 of the molar value.

System: Nrf2
Experiment: Evaluation of Nrf2 activation ability (Nrf2d-LacZ / Keap1 HEK293 reporter, Beta-Glo luminescence)
Format: cell-based, human
Outline: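 HEK293 cells stably expressing a human Nrf2 degron–LacZ fusion plus human Keap1 were exposed to compound for 3 h at 37° C. Reporter β-galactosidase was read by Beta-Glo luminescence after 1 h at RT. Activation is given as % of the signal with 100 nM CDDO-Im.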

[1] = Pharmacological Test Example 1, rated A/B/C
[2] = rated A/B/C, Pharmacological Test Example 1

SMILES	pEC50 [1]	pEC50 [2]
Cc1cccc(C)c1-c1cccc(COc2ccc(-c3cnn(-c4cc(O)n[s+]4[O-])c3)cc2)c1 (stereo not shown) [Example 338]	5.30 to 6.00	–
O=C(c1c(Cl)cccc1Cl)c1nn(-c2cc(O)n[s+]2[O-])c2ccccc12 (stereo not shown) [Example 22]	–	5.30 to 6.00
[O-][s+]1nc(O)cc1-n1cc(-c2ccc3cccnc3c2)cn1 (stereo not shown) [Example 357]	> 6.00	–
[O-][s+]1nc(O)cc1-n1cc(-c2cccc3ccccc23)cn1 (stereo not shown) [Example 341]	5.30 to 6.00	–
[O-][s+]1nc(O)cc1-n1ncc2c1CCN(CC1CCCCC1)C2 (single isomer, unassigned) [Example 257]	–	5.30 to 6.00
CN(C(=O)N1CCC(c2ccc3c(cnn3-c3cc(O)n[s+]3[O-])c2)CC1)c1ccccc1 (stereo not shown) [Example 170]	–	5.30 to 6.00
[O-][s+]1nc(O)cc1-n1cc(-c2cccc(-c3ccccc3)c2)cn1 (stereo not shown) [Example 326]	> 6.00	–
[O-][s+]1nc(O)cc1-n1cc(C2CCOCC2)cn1 (stereo not shown) [Example 308]	–	5.00 to 5.30
CC1(C)C(=O)N(CC2CC2)c2ccc(-c3cnn(-c4cc(O)n[s+]4[O-])c3)cc21 (stereo not shown) [Example 430]	5.30 to 6.00	–
[O-][s+]1nc(O)cc1-n1cc(-c2ccc(F)nc2)cn1 (stereo not shown) [Example 443]	5.30 to 6.00	–
CN(C)Cc1ccc(-c2cnn(-c3cc(O)n[s+]3[O-])c2)cc1 (stereo not shown) [Example 405]	5.30 to 6.00	–
[O-][s+]1nc(O)cc1-n1cc(-c2cccc3ncccc23)cn1 (stereo not shown) [Example 355]	5.30 to 6.00	–
[O-][s+]1nc(O)cc1-n1cc(-c2ccc(-c3ccc(N4CCCC4)nc3)nc2)cn1 (stereo not shown) [Example 441]	> 6.00	–
CC(C)(C)OC(=O)N1CC=C(c2ccc(-c3cnn(-c4cc(O)n[s+]4[O-])c3)cn2)CC1 (single isomer, unassigned) [Example 449]	5.30 to 6.00	–
O=C(c1ccc(-c2ccc3c(cnn3-c3cc(O)n[s+]3[O-])c2)cn1)N1CCCC1 (stereo not shown) [Example 157]	–	5.30 to 6.00
CC(C)(C)OC(=O)N1Cc2cn(-c3cc(O)n[s+]3[O-])nc2C1 (stereo not shown) [Example 246]	–	5.30 to 6.00

SMILES	pEC50 [1]	pEC50 [2]
[O-][s+]1nc(O)cc1-n1ncc2c1CN(CC1CCCCC1)C2 (single isomer, unassigned) [Example 273]	–	> 6.00
Cc1cc(OCCCS(C)(=O)=O)cc(C)c1-c1cccc(COc2ccc(-c3cnn(-c4cc(O)n[s+]4[O-])c3)cc2)c1 (stereo not shown) [Example 339]	5.30 to 6.00	–
[O-][s+]1nc(O)cc1-n1cc(CCc2ccccc2)cn1 (stereo not shown) [Example 307]	–	> 6.00
[O-][s+]1nc(O)cc1-n1cc(C2=Cc3ccccc3CC2)cn1 (stereo not shown) [Example 349]	> 6.00	–
[O-][s+]1nc(O)cc1-n1cc(/C=C/c2ccccc2)cn1 (stereo not shown) [Example 318]	5.30 to 6.00	–
CN1CCOc2cc(-c3ccc4c(c3)c(C#N)nn4-c3cc(O)n[s+]3[O-])cnc21 (stereo not shown) [Example 221]	–	5.30 to 6.00
COc1ncccc1-c1ccc(-c2cnn(-c3cc(O)n[s+]3[O-])c2)cn1 (stereo not shown) [Example 447]	> 6.00	–
CNc1ccc(-c2cnn(-c3cc(O)n[s+]3[O-])c2)cn1 (stereo not shown) [Example 400]	5.30 to 6.00	–
COC(=O)C1(c2ccc(-c3cnn(-c4cc(O)n[s+]4[O-])c3)cc2)CC1 (stereo not shown) [Example 324]	> 6.00	–
Cc1nn(-c2cc(O)n[s+]2[O-])c(C)c1C1=CCCCC1 (stereo not shown) [Example 315]	5.30 to 6.00	–
COc1ccc(-c2ccc(-c3cnn(-c4cc(O)n[s+]4[O-])c3)cn2)cn1 (stereo not shown) [Example 444]	> 6.00	–
CN1CCOc2cc(-c3ccc(CCc4cnn(-c5cc(O)n[s+]5[O-])c4)cn3)cnc21 (stereo not shown) [Example 461]	5.30 to 6.00	–
Cc1cccc(C)c1COc1ccc(-c2cnn(-c3cc(O)n[s+]3[O-])c2)cc1 (stereo not shown) [Example 376]	5.30 to 6.00	–
Cc1nn(-c2cc(O)n[s+]2[O-])c(C)c1C1=CCN(C(=O)OC(C)(C)C)CC1 (stereo not shown) [Example 313]	–	5.00 to 5.30
[O-][s+]1nc(O)cc1-n1cc2c(n1)CN(Cc1ccccc1)C2 (single isomer, unassigned) [Example 255]	–	5.30 to 6.00
COc1cc(-c2ccc(-c3cnn(-c4cc(O)n[s+]4[O-])c3)cn2)ccn1 (stereo not shown) [Example 446]	> 6.00	–

Continued, values first:

pEC50 [1]	pEC50 [2]	SMILES
–	> 6.00	CN1C(=O)C(C)(C)Oc2cc(-c3ccc4c(cnn4-c4cc(O)n[s+]4[O-])c3)cnc21 (stereo not shown) [Example 187]
–	5.30 to 6.00	[O-][s+]1nc(O)cc1-n1ncc2c(C3=CCC(F)(F)CC3)cccc21 (stereo not shown) [Example 93]
–	> 6.00	CN1CCOc2cc(-c3ccc4c(cnn4-c4cc(O)n[s+]4[O-])c3)ncc21 (stereo not shown) [Example 222]
–	> 6.00	[O-][s+]1nc(O)cc1-n1ncc2cc(-c3ccc(Oc4ccccc4)cc3)ccc21 (stereo not shown) [Example 74]
–	5.30 to 6.00	COc1cc2c(cnn2-c2cc(O)n[s+]2[O-])cc1C1=CCN(C(=O)OC(C)(C)C)CC1 (stereo not shown) [Example 71]
–	> 6.00	COc1c(Br)ccc2c1cnn2-c1cc(O)n[s+]1[O-] (stereo not shown) [Example 207]
–	5.30 to 6.00	N#Cc1nn(-c2cc(O)n[s+]2[O-])c2ccc(Cl)cc12 (stereo not shown) [Example 21]
–	> 6.00	Cc1cncc(-c2ccc3c(cnn3-c3cc(O)n[s+]3[O-])c2)c1 (stereo not shown) [Example 56]
–	> 6.00	COc1c(-c2cnc3c(c2)OCCN3C)ccc2c1cnn2-c1cc(O)n[s+]1[O-] (stereo not shown) [Example 211]
> 6.00	–	COc1cccc(-c2cnn(-c3cc(O)n[s+]3[O-])c2)c1 (stereo not shown) [Example 388]
–	5.30 to 6.00	COc1cc2c(cnn2-c2cc(O)n[s+]2[O-])cc1Br (stereo not shown) [Example 69]
–	> 6.00	CC(C)CN1CCOc2cc(-c3ccc4c(cnn4-c4cc(O)n[s+]4[O-])c3)cnc21 (stereo not shown) [Example 160]
–	5.30 to 6.00	CC(=O)Nc1ccc(-c2ccc3c(cnn3-c3cc(O)n[s+]3[O-])c2)cc1 (stereo not shown) [Example 66]
–	5.30 to 6.00	Cc1cccc2cnn(-c3cc(O)n[s+]3[O-])c12 (stereo not shown) [Example 34]
–	5.00 to 5.30	COc1ccc(CN2Cc3cnn(-c4cc(O)n[s+]4[O-])c3C2)cn1 (stereo not shown) [Example 266]
–	5.30 to 6.00	[O-][s+]1nc(O)cc1-n1ncc2ccccc21 (stereo not shown) [Example 1, 5-(indazol-1-yl)-1-oxo-1,2-thiazol-3-ol]
> 6.00	–	Cn1ccc2ccc(-c3cnn(-c4cc(O)n[s+]4[O-])c3)cc21 (stereo not shown) [Example 353]
–	> 6.00	[O-][s+]1nc(O)cc1-n1cc(-c2cccc(Br)c2)cn1 (stereo not shown) [Example 290]
–	5.30 to 6.00	[O-][s+]1nc(O)cc1-n1ncc2cc(-c3ccc(F)cn3)ccc21 (stereo not shown) [Example 119]
–	> 6.00	Cn1nc(-c2ccc3c(cnn3-c3cc(O)n[s+]3[O-])c2)c2ccccc21 (stereo not shown) [Example 224]
–	> 6.00	[2H]c1cccc(-c2ccc3c(cnn3-c3cc(O)n[s+]3[O-])c2)n1 (stereo not shown) [Example 89]
–	5.30 to 6.00	[O-][s+]1nc(O)cc1-n1ncc2cc(-c3cnc(C4CC4)cn3)ccc21 (stereo not shown) [Example 122]

pEC50 [1]	pEC50 [2]	SMILES
–	5.30 to 6.00	[O-][s+]1nc(O)cc1-n1ncc2c(-c3cccnc3)cccc21 (stereo not shown) [Example 92]
–	> 6.00	CC(C)(C)OC(=O)N1CCC(c2ccc3c(cnn3-c3cc(O)n[s+]3[O-])c2)CC1 (stereo not shown) [Example 62]
–	5.30 to 6.00	[O-][s+]1nc(O)cc1-n1ncc2ccc(Br)cc21 (stereo not shown) [Example 7]
–	5.30 to 6.00	Cc1cncc(-c2ccc3c(cnn3-c3cc(O)n[s+]3[O-])c2)n1 (stereo not shown) [Example 118]
–	> 6.00	Cc1cc2cnn(-c3cc(O)n[s+]3[O-])c2cc1C (stereo not shown) [Example 18]
–	> 6.00	CN1CCOc2cc(-c3ccc4c(cnn4-c4cc(O)n[s+]4[O-])c3)c(C#N)nc21 (stereo not shown) [Example 184]
–	> 6.00	COc1cccc(-c2ccc3c(cnn3-c3cc(O)n[s+]3[O-])c2)n1 (stereo not shown) [Example 129]
–	> 6.00	CN1c2ncc(-c3ccc4c(cnn4-c4cc(O)n[s+]4[O-])c3)cc2OCC1(C)C (stereo not shown) [Example 213]
–	> 6.00	COCC1CCCN1c1ccc(-c2ccc3c(cnn3-c3cc(O)n[s+]3[O-])c2)cn1 (stereo not shown) [Example 198]
–	5.30 to 6.00	COc1cc(-c2cccnc2)c2cnn(-c3cc(O)n[s+]3[O-])c2c1 (stereo not shown) [Example 166]
–	5.30 to 6.00	[O-][s+]1nc(O)cc1-n1ncc2cc(OCc3cccnc3)ccc21 (stereo not shown) [Example 144]
–	5.30 to 6.00	Cc1cc(-c2ccccc2)nn1-c1cc(O)n[s+]1[O-] (stereo not shown) [Example 310]
–	> 6.00	[O-][s+]1nc(O)cc1-n1ncc2cc(-c3ccncc3)ccc21 (stereo not shown) [Example 58]
–	> 6.00	[O-][s+]1nc(O)cc1-n1ncc2cc(-c3ccc(N4CCCC4)cn3)ccc21 (stereo not shown) [Example 139]
–	> 6.00	Cc1cncc(-c2ccc3c(cnn3-c3cc(O)n[s+]3[O-])c2)c1 (stereo not shown) [Example 49]
–	> 6.00	[O-][s+]1nc(O)cc1-n1ncc2cc(-c3ccc(C4CC4)nc3)ccc21 (stereo not shown) [Example 46]
–	5.30 to 6.00	[O-][s+]1nc(O)cc1-n1ncc2cc(-c3ccc(Cl)cn3)ccc21 (stereo not shown) [Example 121]
–	> 6.00	[O-][s+]1nc(O)cc1-n1ncc2cc(-c3ccccc3)ncc21 (stereo not shown) [Example 233]
–	5.30 to 6.00	[O-][s+]1nc(O)cc1-n1ncc2ccc(Cl)cc21 (stereo not shown) [Example 31]
–	5.30 to 6.00	[O-][s+]1nc(O)cc1-n1ncc2ccccc21 (stereo not shown) [Example 16]
–	> 6.00	[O-][s+]1nc(O)cc1-n1ncc2cc(-c3cccc(C(F)F)n3)ccc21 (stereo not shown) [Example 116]
–	5.30 to 6.00	CC(C)(C)OC(=O)N1CC=C(c2ccc3cnn(-c4cc(O)n[s+]4[O-])c3c2)CC1 (stereo not shown) [Example 104]
